# Test results taken from ChEMBL document CHEMBL5465560, “Selectivity Literature for EUbOPEN Chemogenomic Library” (2024).
# Assays:
# [1] = target: Mitogen-activated protein kinase 6 (Homo sapiens) (UniProt Q16659); test: Selectivity interaction (KinomeScan (DiscoverX)) EUB0000045b MAPK6
# [2] = target: Tyrosine-protein kinase Yes (Homo sapiens) (UniProt P07947); test: Selectivity interaction (KinomeScan (DiscoverX)) EUB0000045b YES1
# [3] = target: Serine/threonine-protein kinase SIK3 (Homo sapiens) (UniProt Q9Y2K2); test: Selectivity interaction (KinomeScan (DiscoverX)) EUB0001079a SIK3; settings: at 1 µM
# [4] = target: T1, Serine/threonine-protein kinase ULK2 (Homo sapiens) (UniProt Q8IYT8); test: Selectivity interaction (KinomeScan (DiscoverX)) EUB0001079a ULK2; settings: at 1 µM
# T1 sequence (whole entry): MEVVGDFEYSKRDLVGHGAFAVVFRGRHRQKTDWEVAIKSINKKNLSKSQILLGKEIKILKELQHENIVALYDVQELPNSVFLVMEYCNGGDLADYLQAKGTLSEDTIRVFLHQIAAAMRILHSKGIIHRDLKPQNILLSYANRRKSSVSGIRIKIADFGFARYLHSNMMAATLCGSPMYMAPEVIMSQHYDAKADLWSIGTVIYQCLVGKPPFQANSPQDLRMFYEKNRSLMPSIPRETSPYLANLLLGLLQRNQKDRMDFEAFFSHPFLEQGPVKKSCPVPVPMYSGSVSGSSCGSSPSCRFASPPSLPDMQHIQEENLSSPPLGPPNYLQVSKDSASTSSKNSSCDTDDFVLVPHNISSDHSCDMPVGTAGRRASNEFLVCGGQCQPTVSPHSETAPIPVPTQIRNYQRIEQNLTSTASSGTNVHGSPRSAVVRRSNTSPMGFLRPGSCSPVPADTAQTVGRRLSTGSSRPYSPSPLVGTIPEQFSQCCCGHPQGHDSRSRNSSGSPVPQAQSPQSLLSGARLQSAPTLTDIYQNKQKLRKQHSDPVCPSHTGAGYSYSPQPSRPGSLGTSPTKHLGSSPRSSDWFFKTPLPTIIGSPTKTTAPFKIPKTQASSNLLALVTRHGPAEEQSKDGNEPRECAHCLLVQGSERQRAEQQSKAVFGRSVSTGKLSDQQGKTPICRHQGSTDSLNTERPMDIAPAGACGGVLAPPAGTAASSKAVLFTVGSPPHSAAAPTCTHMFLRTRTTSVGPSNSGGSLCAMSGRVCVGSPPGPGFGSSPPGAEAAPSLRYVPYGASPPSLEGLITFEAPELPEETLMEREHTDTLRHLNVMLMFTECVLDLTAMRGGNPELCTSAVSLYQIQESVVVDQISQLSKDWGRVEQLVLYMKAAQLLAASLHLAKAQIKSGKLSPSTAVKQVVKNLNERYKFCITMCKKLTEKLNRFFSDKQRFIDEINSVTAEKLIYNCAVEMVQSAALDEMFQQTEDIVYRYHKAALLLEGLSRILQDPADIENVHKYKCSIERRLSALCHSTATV
# [5] = target: MAP kinase-interacting serine/threonine-protein kinase 2 (Homo sapiens, UniProt Q9HBH9); test: Selectivity interaction (KinomeScan (DiscoverX)) EUB0001049a MKNK2; settings: at 1 µM
# [6] = target: RAC-alpha serine/threonine-protein kinase (Homo sapiens, UniProt P31749); test: Selectivity interaction (KinomeScan (DiscoverX)) EUB0001049a AKT1; settings: at 1 µM
# [7] = target: Myosin light chain kinase, smooth muscle (Homo sapiens, UniProt Q15746); test: Selectivity interaction (KinomeScan (DiscoverX)) EUB0001619a MYLK; settings: at 1 µM
# [8] = target: T2, Serine/threonine-protein kinase MAK (Homo sapiens) (UniProt P20794); test: Selectivity interaction (KinomeScan (DiscoverX)) EUB0000618a MAK; settings: at 10 µM
# T2 sequence (whole entry): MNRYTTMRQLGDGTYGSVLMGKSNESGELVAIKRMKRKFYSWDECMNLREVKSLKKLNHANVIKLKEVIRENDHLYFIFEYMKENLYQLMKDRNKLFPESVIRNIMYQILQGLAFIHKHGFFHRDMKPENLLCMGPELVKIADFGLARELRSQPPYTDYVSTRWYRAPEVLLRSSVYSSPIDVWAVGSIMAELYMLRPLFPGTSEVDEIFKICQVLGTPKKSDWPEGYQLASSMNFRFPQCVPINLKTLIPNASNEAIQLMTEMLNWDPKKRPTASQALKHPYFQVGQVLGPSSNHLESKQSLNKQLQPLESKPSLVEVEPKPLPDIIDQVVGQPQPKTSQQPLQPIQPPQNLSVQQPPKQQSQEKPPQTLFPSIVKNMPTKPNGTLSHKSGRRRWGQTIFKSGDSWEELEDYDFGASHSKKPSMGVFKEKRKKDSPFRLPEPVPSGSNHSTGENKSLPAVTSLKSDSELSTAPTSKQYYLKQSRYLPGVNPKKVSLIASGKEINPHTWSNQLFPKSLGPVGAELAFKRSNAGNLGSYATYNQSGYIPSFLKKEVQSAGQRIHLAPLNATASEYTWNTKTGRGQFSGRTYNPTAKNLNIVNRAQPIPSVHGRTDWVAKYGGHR
# [9] = target: Cyclin-dependent kinase 7 (Homo sapiens, UniProt P50613); test: Selectivity interaction (ActivX KiNativ screen (kinase selectivity in THP-1 cell lysates)) EUB0000639a CDK7; type: subcellular; settings: lysate
# [10] = target: 5'-AMP-activated protein kinase catalytic subunit alpha-1 (Homo sapiens, UniProt Q13131); test: Selectivity interaction (Kinase panel (Invitrogen)) EUB0000639a PRKAA1; settings: at 200 nM
# [11] = target: Serine/threonine-protein kinase Chk2 (Homo sapiens) (UniProt O96017); test: Selectivity interaction (ActivX KiNativ screen (kinase selectivity in THP-1 cell lysates)) EUB0000639a CHEK2; type: subcellular; settings: lysate, at 0.04 µM
# [12] = target: cAMP-dependent protein kinase catalytic subunit beta (Homo sapiens) (UniProt P22694); test: Selectivity interaction (KinomeScan (DiscoverX)) EUB0000655a PRKACB; settings: at 10 µM
# [13] = target: Tyrosine-protein kinase FRK (Homo sapiens) (UniProt P42685); test: Selectivity interaction (Ambit KINOMEscan and KiNATiv profiling in Jurkat cells) EUB0000090b FRK; type: cell-based; settings: at 1 µM
# Sequence of Tyrosine-protein kinase FRK (Homo sapiens) (P42685 whole entry): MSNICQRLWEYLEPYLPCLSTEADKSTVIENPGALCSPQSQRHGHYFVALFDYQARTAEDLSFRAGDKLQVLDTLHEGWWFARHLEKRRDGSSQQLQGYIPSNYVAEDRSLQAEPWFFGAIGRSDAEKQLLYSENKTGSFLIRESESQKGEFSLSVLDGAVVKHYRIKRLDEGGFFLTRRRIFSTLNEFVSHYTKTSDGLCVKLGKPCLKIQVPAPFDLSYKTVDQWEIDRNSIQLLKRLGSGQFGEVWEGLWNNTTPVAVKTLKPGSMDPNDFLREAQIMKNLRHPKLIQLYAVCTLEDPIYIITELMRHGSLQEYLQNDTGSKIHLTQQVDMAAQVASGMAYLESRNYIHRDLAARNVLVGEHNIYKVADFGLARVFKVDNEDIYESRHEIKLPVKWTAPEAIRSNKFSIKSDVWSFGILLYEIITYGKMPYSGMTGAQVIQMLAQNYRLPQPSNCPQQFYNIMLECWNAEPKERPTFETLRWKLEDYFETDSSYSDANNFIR
# Sequence of Cyclin-dependent kinase 7 (P50613 whole entry): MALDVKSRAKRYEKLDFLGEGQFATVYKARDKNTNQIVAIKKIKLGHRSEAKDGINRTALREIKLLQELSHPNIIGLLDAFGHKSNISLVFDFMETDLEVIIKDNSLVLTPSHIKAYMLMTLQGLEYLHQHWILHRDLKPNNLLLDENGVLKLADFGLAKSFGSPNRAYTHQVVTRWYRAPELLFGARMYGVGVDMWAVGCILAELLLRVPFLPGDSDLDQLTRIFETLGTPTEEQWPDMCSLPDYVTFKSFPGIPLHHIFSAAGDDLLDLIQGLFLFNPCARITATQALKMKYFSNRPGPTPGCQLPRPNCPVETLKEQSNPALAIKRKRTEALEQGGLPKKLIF
# Sequence of Mitogen-activated protein kinase 6 (Homo sapiens) (Q16659 whole entry): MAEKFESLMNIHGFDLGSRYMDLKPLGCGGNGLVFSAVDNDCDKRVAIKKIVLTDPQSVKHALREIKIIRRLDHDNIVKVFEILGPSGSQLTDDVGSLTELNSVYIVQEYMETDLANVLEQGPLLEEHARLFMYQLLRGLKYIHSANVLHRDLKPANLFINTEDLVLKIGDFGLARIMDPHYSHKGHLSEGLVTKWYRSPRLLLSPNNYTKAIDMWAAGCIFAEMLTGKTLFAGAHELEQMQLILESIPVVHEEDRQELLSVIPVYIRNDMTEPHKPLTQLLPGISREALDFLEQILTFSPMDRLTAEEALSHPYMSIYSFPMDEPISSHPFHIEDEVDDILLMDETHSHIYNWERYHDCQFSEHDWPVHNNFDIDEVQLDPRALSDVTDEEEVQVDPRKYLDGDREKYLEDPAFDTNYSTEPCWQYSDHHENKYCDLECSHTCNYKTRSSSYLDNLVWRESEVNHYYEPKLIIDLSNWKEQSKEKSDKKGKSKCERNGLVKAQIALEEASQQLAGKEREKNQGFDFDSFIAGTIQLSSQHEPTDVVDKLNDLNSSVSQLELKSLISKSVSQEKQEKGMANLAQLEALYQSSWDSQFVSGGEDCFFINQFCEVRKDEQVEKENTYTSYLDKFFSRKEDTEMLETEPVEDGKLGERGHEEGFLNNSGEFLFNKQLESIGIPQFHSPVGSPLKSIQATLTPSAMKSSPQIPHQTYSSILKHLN
# Sequence of Tyrosine-protein kinase Yes (Homo sapiens) (P07947 2-543 limits assumed): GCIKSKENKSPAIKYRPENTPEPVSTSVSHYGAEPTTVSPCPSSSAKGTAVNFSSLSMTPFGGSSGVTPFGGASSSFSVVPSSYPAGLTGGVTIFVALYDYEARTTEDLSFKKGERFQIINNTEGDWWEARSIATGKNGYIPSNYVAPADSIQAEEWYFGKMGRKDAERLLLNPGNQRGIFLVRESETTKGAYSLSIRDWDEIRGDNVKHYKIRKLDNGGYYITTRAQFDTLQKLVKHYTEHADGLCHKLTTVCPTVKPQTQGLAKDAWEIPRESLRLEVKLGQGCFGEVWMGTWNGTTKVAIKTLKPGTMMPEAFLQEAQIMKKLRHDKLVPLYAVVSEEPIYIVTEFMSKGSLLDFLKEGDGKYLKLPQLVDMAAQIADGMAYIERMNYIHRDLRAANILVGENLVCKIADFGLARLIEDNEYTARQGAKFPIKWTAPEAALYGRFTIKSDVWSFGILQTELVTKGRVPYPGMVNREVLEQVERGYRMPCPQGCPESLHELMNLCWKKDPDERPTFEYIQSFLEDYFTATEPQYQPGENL
# Sequence of RAC-alpha serine/threonine-protein kinase (P31749 whole entry): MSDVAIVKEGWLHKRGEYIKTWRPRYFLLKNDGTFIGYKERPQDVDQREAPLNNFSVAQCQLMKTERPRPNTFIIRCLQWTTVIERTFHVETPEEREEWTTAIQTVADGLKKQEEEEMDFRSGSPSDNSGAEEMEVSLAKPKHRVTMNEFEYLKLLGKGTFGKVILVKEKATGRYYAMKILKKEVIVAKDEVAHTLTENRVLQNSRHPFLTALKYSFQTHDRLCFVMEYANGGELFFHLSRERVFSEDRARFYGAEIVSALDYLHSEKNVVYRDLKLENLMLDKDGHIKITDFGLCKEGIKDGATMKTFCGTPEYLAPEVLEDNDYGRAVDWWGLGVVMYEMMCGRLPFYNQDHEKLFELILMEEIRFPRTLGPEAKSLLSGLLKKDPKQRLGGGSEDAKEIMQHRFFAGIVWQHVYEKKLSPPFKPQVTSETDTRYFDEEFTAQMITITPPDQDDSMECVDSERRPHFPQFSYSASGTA
# Sequence of Serine/threonine-protein kinase Chk2 (Homo sapiens) (O96017 whole entry): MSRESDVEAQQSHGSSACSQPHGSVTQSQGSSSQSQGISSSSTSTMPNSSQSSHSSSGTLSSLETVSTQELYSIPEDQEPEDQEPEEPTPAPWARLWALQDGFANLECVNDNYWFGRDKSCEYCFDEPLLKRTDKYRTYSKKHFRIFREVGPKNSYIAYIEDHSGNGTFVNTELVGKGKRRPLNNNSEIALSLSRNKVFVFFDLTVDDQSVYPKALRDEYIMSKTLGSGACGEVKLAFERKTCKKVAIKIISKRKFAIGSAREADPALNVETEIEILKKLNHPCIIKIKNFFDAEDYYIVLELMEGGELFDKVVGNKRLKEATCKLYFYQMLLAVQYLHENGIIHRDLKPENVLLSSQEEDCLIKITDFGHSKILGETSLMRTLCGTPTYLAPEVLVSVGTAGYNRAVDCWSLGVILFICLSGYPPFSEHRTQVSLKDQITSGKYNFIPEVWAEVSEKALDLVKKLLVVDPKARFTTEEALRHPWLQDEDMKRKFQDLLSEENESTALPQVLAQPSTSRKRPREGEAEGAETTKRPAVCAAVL
# Sequence of Serine/threonine-protein kinase SIK3 (Homo sapiens) (Q9Y2K2 whole entry, looked up): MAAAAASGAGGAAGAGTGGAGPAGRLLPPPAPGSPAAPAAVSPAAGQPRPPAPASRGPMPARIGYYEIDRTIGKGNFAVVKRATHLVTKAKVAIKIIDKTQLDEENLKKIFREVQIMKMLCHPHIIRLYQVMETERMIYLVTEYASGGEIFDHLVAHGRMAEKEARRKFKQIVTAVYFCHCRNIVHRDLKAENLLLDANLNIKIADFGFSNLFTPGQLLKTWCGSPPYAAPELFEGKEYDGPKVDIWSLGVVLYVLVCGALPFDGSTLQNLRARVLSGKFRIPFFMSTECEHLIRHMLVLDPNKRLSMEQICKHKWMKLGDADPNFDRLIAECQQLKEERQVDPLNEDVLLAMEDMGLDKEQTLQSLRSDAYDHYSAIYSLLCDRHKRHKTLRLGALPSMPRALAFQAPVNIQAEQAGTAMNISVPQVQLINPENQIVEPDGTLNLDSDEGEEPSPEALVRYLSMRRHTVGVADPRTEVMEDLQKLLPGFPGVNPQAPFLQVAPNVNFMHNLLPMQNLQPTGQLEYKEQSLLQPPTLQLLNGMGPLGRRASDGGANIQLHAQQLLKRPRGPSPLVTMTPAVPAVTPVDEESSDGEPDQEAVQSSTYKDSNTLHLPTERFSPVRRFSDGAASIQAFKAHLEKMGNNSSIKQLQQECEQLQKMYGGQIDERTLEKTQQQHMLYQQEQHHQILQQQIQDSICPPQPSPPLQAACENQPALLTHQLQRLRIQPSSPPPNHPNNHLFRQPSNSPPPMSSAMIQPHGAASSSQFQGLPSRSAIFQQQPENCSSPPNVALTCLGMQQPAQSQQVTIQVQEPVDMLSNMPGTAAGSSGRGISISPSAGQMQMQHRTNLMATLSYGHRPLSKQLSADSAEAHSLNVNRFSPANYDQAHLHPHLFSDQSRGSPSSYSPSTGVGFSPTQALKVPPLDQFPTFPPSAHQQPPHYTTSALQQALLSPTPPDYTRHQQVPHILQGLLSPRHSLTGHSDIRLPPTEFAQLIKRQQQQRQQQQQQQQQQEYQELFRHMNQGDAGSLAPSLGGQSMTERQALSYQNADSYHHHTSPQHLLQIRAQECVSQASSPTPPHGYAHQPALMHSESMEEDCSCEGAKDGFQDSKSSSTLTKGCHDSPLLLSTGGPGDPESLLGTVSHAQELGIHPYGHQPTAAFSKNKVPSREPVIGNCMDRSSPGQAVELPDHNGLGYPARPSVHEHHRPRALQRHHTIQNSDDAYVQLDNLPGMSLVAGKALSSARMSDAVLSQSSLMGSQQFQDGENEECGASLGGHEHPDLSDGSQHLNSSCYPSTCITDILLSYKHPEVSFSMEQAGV
# Sequence of 5'-AMP-activated protein kinase catalytic subunit alpha-1 (Q13131 whole entry, looked up): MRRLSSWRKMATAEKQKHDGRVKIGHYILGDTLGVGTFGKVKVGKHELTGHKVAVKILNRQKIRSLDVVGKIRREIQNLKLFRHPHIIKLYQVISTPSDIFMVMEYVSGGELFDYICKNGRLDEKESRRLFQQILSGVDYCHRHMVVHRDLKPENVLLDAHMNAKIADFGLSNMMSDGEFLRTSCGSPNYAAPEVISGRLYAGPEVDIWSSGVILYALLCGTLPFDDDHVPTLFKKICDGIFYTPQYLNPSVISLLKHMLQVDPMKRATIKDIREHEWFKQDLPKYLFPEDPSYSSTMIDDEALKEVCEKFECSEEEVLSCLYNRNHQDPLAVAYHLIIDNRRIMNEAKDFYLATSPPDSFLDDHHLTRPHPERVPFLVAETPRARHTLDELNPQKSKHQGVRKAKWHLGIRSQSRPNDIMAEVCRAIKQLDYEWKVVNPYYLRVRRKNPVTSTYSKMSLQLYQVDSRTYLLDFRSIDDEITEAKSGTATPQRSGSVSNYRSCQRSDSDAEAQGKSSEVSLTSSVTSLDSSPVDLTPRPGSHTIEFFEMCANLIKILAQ
structure (smiles),measurement,setting,value
C=CC(=O)Nc1cc(-n2c(=O)ccc3cnc4ccc(-c5ccc(NS(C)(=O)=O)cc5)cc4c32)ccc1C,% of control,[1]; at 1 µM,82%
same,% of control,[1]; at 10 µM,100%
same,% of control,[2]; at 1 µM,74%
same,% of control,[2]; at 10 µM,100%
Nc1cnc(N2CCc3cc(S(=O)(=O)Nc4c(F)cc(Cl)cc4F)cc(N4CCCC4=O)c32)nc1 [TP-020n],% of control,[3],83%
same,% of control,[4],100%
COc1cc(Nc2nc(C)cc(-c3cnn4nc(OC)ccc34)n2)cc(C(F)(F)F)c1,% of control,[5],78%
same,% of control,[6],100%
N#Cc1cccc(-c2c[nH]c3ncnc(N4CCOCC4)c23)c1,% of control,[7],100%
O[C@H]1CC[C@H](Nc2ncc3nc(Nc4c(F)cc(F)cc4F)n([C@H]4CCOC4)c3n2)CC1,% of control,[8],97%
CC[C@@H]1[C@H](F)C(=O)N[C@@H]1COc1nccc2cc(C(N)=O)c(OC)cc12 [ZIMLOVISERTIB],% of inhibition,[9]; at 0.01 µM,-17%
same,% of inhibition,[9]; at 0.04 µM,-0.9%
same,% of inhibition,[9]; at 0.2 µM,-1.1%
same,% of inhibition,[9]; at 1 µM,20.9%
same,% of inhibition,[9]; at 5 µM,60%
same,% of inhibition,[10],13.1%
same,% of inhibition,[11],-4.5%
CN(C)CCOc1ccc(-c2nc(-c3ccncc3)c(-c3ccc4c(c3)CC/C4=N\O)[nH]2)cc1,% of control,[12],74%
CN(C)C/C=C/C(=O)Nc1ccc(C(=O)N2CCCC(Nc3ncc(Cl)c(-c4c[nH]c5ccccc45)n3)C2)cc1 (centres undefined),% of control,[13],89%
